Test results taken from US10988459B2 (priority 2015, dated 2021).

target: human RIP1 kinase domain (2-375) (Homo sapiens (Human), UniProt Q13546); assay: biochemical; type: biochemical; settings: Table 1; apparent Ki (Morrison tight-binding fit); 50 nM RIP1 kinase domain, 50 uM ATP, 2 hours incubation; read-out: RIP1 Ki
Experimental: Example 794: RIP1 Kinase Inhibition Assays (Biochemical Assay)
The compounds of the present invention were tested for their capacity to inhibit RIP1K activity as described below.
The ability of the receptor interacting protein kinase (RIPK1) to catalyze the hydrolysis of adenosine-5′-triphosphate (ATP) is monitored using the Transcreener ADP (adenosine-5′-diphosphate) assay (BellBrook Labs). Purified human RIP1 kinase domain (2-375) (50 nM) derived from a baculovirus-infected insect cell expression system is incubated with test compounds for 2 hours in 50 mM Hepes buffer (pH 7.5) containing 30 mM MgCl2, 1 mM dithiothreitol, 50 uM ATP, 0.002% Brij-35, and 0.5% dimethyl sulfoxide (DMSO). […] The tracer bound to the antibody is displaced by the ADP generated during the RIP1K reaction, which causes a decrease in fluorescence polarization that is measured by laser excitation at 633 nm with a FP microplate reader M1000. Fractional activity was plotted against test article concentration. Using Genedata Screener software (Genedata; Basel, Switzerland), the data were fit to the tight-binding apparent inhibition constant (Ki^app) Morrison equation [Williams, J. W. and Morrison, J. F. (1979) The kinetics of reversible tight-binding inhibition. Methods Enzymol 63: 437-67]. The following equation was used to calculate fractional activity and Ki^app:
[formula] where [E]T and [I]T are the total concentrations of active enzyme and test article, respectively.
“Method” in the first column of each table refers to the synthetic method(s) used to prepare each compound as shown in the Examples above. In certain examples, chiral column retention times (min) are provided for certain stereoisomers.

Sequence of human RIP1 kinase domain (2-375) (Q13546 2-375): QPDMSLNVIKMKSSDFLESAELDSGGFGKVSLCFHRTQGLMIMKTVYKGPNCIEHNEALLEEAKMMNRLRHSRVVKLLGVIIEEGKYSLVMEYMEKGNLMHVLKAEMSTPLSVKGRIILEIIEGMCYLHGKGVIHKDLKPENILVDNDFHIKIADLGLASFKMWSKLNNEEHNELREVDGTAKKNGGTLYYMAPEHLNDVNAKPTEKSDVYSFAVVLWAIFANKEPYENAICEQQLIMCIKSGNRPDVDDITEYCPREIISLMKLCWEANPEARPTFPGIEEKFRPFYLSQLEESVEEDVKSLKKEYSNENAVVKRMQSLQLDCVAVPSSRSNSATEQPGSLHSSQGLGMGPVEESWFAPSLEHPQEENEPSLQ

Structure (SMILES)	Ki
CC1CCc2onc(C(=O)N[C@H]3COc4ccccc4NC3=O)c2C1 (stereo partly drawn) [Example 63, 5-methyl-N-((S)-4-oxo-2,3,4,5-tetrahydrobenzo[b][1,4]oxazepin-3-yl)-4,5,6,7-tetrahydrobenzo[d]isoxazole-3-carboxamide]	740 nM

same assay, conditions: Table 5; apparent Ki (Morrison tight-binding fit); 50 nM RIP1 kinase domain, 50 uM ATP, 2 hours incubation; read-out: Ki

Structure (SMILES)	Ki
Cc1ncc(-c2cc3n(n2)CCC(NC(=O)c2ncn(Cc4ccccc4)n2)C(=O)N3C)n1C (racemic) [Example 775, 1-benzyl-N-(2-(1,2-dimethyl-1H-imidazol-5-yl)-4-methyl-5-oxo-5,6,7,8-tetrahydro-4H-pyrazolo[1,5-a][1,3]diazepin-6-yl)-1H-1,2,4-triazole-3-carboxamide]	182 nM
CN1C(=O)[C@@H](NC(=O)c2ncn(Cc3ccccc3)n2)CCn2nc(CN3CCOCC3)cc21 [Example 779, (S)-1-benzyl-N-(4-methyl-2-(morpholinomethyl)-5-oxo-5,6,7,8-tetrahydro-4H-pyrazolo[1,5-a][1,3]diazepin-6-yl)-1H-1,2,4-triazole-3-carboxamide]	155 nM
Cc1nc(-c2cc3n(n2)CCC(NC(=O)c2ncn(Cc4ccccc4)n2)C(=O)N3C)cn1C (racemic) [Example 776, 1-benzyl-N-(2-(1,2-dimethyl-1H-imidazol-4-yl)-4-methyl-5-oxo-5,6,7,8-tetrahydro-4H-pyrazolo[1,5-a][1,3]diazepin-6-yl)-1H-1,2,4-triazole-3-carboxamide]	212 nM
CN1C(=O)[C@@H](NC(=O)c2ncn(Cc3ccccc3)n2)CCn2nc(Cn3ccnc3)cc21 [Example 707, (S)-1-benzyl-N-[2-(imidazol-1-ylmethyl)-4-methyl-5-oxo-7,8-dihydro-6H-pyrazolo[1,5-a][1, 3]diazepin-6-yl]-1,2,4-triazole-3-carboxamide]	530 nM
CN1C(=O)[C@@H](NC(=O)c2cc3c(cn2)cnn3CCC(F)F)COc2ccccc21 [Example 711, 1-(3,3-difluoropropyl)-N-[(3S)-5-methyl-4-oxo-2,3-dihydro-1,5-benzoxazepin-3-yl]pyrazolo[4,3-c]pyridine-6-carboxamide]	73 nM

same assay, conditions: human RIP1 kinase domain (2-375), 50 uM ATP, 2 hours incubation, Transcreener ADP assay; read-out: RIP1 Ki

Structure (SMILES)	Ki
CC(C)n1ncc2c1OC[C@H](NC(=O)c1cn(Cc3ccc(F)c(F)c3)cn1)C(=O)N2C [Example 180, (S)-1-(3,4-difluorobenzyl)-N-(1-isopropyl-4-methyl-5-oxo-4,5,6,7-tetrahydro-1H-pyrazolo[3,4-b][1,4]oxazepin-6-yl)-1H-imidazole-4-carboxamide]	8500 nM
CN1C(=O)[C@@H](NC(=O)c2nc3n(n2)[C@H](c2ccccc2)CC3)CCn2nccc21 (single isomer, unassigned) [Example 126]	24.1 nM
Cc1ncn2c1N(C)C(=O)C(NC(=O)c1ncn(Cc3ccccc3)n1)CC2 (centres unmarked) [Example 215, 1-benzyl-N-(1,9-dimethyl-2-oxo-2,3,4,5-tetrahydro-1H-imidazo[1,5-a][1,3]diazepin-3-yl)-1H-1,2,4-triazole-3-carboxamide]	106 nM

same assay, conditions: human RIP1 kinase domain (2-375), Transcreener ADP assay, 50 uM ATP, 2 hours incubation; read-out: RIP1 Ki

Structure (SMILES)	Ki
CN1C(=O)[C@@H](NC(=O)c2ncn(Cc3ccc(Cl)cc3Cl)n2)CCn2nc(C3CC3)cc21 [Example 307, (S)—N-(2-cyclopropyl-4-methyl-5-oxo-5,6,7,8-tetrahydro-4H-pyrazolo[1,5-a][1,3]diazepin-6-yl)-1-(2,4-dichlorobenzyl)-1H-1,2,4-triazole-3-carboxamide]	8.5 nM
CN1C(=O)[C@@H](NC(=O)c2ncn(Cc3cc(F)cc(F)c3)n2)CCn2nc(C3CC3)cc21 [Example 303, (S)—N-(2-cyclopropyl-4-methyl-5-oxo-5,6,7,8-tetrahydro-4H-pyrazolo[1,5-a][1,3]diazepin-6-yl)-1-(3,5-difluorobenzyl)-1H-1,2,4-triazole-3-carboxamide]	18.5 nM

same assay, conditions: tight-binding apparent inhibition constant; human RIP1 kinase domain (2-375) 50 nM, 50 uM ATP, 2 hours; read-out: Ki

Structure (SMILES)	Ki
CC(C)c1cc2n(n1)CC[C@H](NC(=O)c1ncn(Cc3ccccc3)n1)C(=O)N2C [Example 458, (S)-1-Benzyl-N-(2-isopropyl-4-methyl-5-oxo-5,6,7,8-tetrahydro-4H-pyrazolo[1,5-a][1,3]diazepin-6-yl)-1H-1,2,4-triazole-3-carboxamide]	10 nM
Cc1cc(F)c2c(c1)OC[C@H](NC(=O)c1nc3n(n1)C(C(C)C)CC3)C(=O)N2 (stereo partly drawn) [Example 345, N-[(3S)-6-fluoro-8-methyl-4-oxo-3,5-dihydro-2H-1,5-benzoxazepin-3-yl]-5-isopropyl-6,7-di hydro-5H-pyrrolo[1,2-b][1,2,4]triazole-2-carboxamide]	20 nM
CC(C)[C@@H]1CCCc2nc(C(=O)N[C@H]3CCc4cc(F)cc(F)c4NC3=O)nn21 (single isomer, unassigned) [Example 436]	20.3 nM
CN1C(=O)C(NC(=O)c2ncn(Cc3ccccc3)n2)CCn2nc(C(C)(F)F)cc21 (racemic) [Example 371, 1-benzyl-N-[2-(1,1-difluoroethyl)-4-methyl-5-oxo-7,8-dihydro-6H-pyrazolo[1,5-a][1,3]diazepin-6-yl]-1,2,4-triazole-3-carboxamide]	100 nM
CN1C(=O)[C@@H](NC(=O)c2ncc3n2CC(CC(F)(F)F)CC3)COc2ccccc21 (stereo partly drawn) [Example 469, N-[(3S)-5-methyl-4-oxo-2,3-dihydro-1,5-benzoxazepin-3-yl]-6-(2,2,2-trifluoroethyl)-5,6,7,8-tetrahydroimidazo[1,5-a]pyridine-3-carboxamide]	1000 nM
CN1C(=O)[C@@H](NC(=O)c2nc3n(n2)[C@H](c2ccccc2F)CC3)COc2ccccc21 [Example 467, (S)-5-(2-fluorophenyl)-N—((S)-5-methyl-4-oxo-2,3,4,5-tetrahydrobenzo[b][1,4]oxazepin-3-yl)-6,7-dihydro-5H-pyrrolo[1,2-b][1,2,4]triazole-2-carboxamide]	57 nM
CN1C(=O)[C@@H](NC(=O)c2ncn(Cc3ccccc3Cl)n2)CCn2nc(C3CC3)cc21 [Example 522]	3.5 nM
CN1C(=O)[C@@H](NC(=O)c2ncn(Cc3cccc(F)c3F)n2)CCn2nc(C(F)(F)F)cc21 [Example 523, 1-[(2,3-difluorophenyl)methyl]-N-(6S)-4-methyl-5-oxo-2-(trifluoromethyl)-7,8-dihydro-6H-pyrazolo[1,5-a][1,3]diazepin-6-yl-1,2,4-triazole-3-carboxamide]	13 nM
CCC(C)(O)c1ccnc(C(=O)N[C@H]2COc3ccccc3N(C)C2=O)n1 (stereo partly drawn) [Example 549, 4-(1-hydroxy-1-methyl-propyl)-N-[(3S)-5-methyl-4-oxo-2,3-dihydro-1,5-benzoxazepin-3-yl]pyrimidine-2-carboxamide]	3700 nM
CCC[C@@H]1CCCc2nc(C(=O)N[C@H]3COc4ccccc4N(C)C3=O)nn21 (racemic) [Example 416, (R)—N—((S)-5-methyl-4-oxo-2,3,4,5-tetrahydrobenzo[b][1,4]oxazepin-3-yl)-5-propyl-5,6,7,8-tetrahydro-[1,2,4]triazolo[1,5-a]pyridine-2-carboxamide]	4.63 nM
Cc1nc(C)n2c1N(C)C(=O)[C@H](NC(=O)c1ncn(Cc3c(F)cccc3F)n1)CC2 [Example 597, 1-[(2,6-difluorophenyl)methyl]-N-(3R)-1,7,9-trimethyl-2-oxo-4,5-dihydro-3H-imidazo[1,5-a][1,3]diazepin-3-yl-1,2,4-triazole-3-carboxamide]	130 nM
CN1C(=O)[C@@H](NC(=O)c2ncn(Cc3ccc(Cl)cc3)n2)CCn2nc(C3CC3)cc21 (racemic) [Example 677, 1-[(4-chlorophenyl)methyl]-N-[rac-(6S)-2-cyclopropyl-4-methyl-5-oxo-7,8-dihydro-6H-pyrazolo[1,5-a][1,3]diazepin-6-yl]-1,2,4-triazole-3-carboxamide]	7.58 nM
